In this assay the target is T1, Solute carrier family 15 member 1 (Homo sapiens, UniProt P46059).
T1 sequence (P46059 whole entry): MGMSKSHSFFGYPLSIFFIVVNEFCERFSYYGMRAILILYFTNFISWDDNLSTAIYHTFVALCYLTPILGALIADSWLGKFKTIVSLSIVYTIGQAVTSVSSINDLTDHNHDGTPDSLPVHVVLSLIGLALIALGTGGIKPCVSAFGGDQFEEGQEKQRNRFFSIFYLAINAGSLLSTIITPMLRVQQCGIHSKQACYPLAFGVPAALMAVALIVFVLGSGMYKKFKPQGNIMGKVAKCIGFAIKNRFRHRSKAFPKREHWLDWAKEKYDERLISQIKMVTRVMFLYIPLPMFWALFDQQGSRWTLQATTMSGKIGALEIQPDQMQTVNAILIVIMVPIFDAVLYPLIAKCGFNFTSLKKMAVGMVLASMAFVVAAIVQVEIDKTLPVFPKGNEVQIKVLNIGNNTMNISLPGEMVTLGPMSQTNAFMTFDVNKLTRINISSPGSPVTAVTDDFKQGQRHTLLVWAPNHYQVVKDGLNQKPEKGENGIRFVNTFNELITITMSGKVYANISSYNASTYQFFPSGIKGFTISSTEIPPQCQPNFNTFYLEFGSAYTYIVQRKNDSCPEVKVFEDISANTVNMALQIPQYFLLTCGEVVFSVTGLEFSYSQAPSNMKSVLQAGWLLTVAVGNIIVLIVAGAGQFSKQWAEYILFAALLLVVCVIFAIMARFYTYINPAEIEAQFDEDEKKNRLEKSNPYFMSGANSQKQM
Put plainly: TP_TRANSPORTER: inhibition of Gly-Sar uptake, 96% trans conformation in Caco-2 cells. It counts as functional, cell-based.

Broadly, the Ki is a measure of affinity in units of concentration, obtained from inhibition or displacement.

Regarding `CC(N)C(=S)N1CCCC1C(=O)O` (stereo unspecified), the affinity, expressed as Ki, was 300 µM.

Values taken from ChEMBL document CHEMBL2074527, “Evidence for the absolute conformational specificity of the intestinal H+/peptide symporter, PEPT1” (J Biol Chem, 1998).
